Results taken from PMC8765781, “A platform of assays for the discovery of anti-Zika small-molecules with activity in a 3D-bioprinted outer-blood-retina model” (PLoS ONE, 2022).
Like-named read-outs stand apart in the source and are kept apart here. *1 amine or outer side, *2 acyl side, *3 side chain or, on linkers, in order; H or OH if unused. Where a SMILES comes first, the peptide text is derived from it. [ ]: non-standard residue; d: D form. X3 = CC(CC(O[*:1])C(=O)[*:2])C(=O)O; NMeV = CN[CH](C(=O)O)C(C)C; NMeA = CN[CH](C)C(=O)O; βAla = NCCC(=O)O

Experiments:
[1] = test system: ZIKV-RLuc (Cambodian strain FSS13025); assay: microbe, parasite or virus in culture; format: cell-based, Zika virus
[2] = test system: wild-type ZIKV (Ugandan MR766 strain) in Vero cells; assay: ZIKV cytopathic effect (CPE) inhibition qHTS assay, CellTiter-Glo readout; format: cell-based, Zika virus; conditions: for Emax: read-out: Max response
[3] = Zika virus, Vero, read-out: Log AC50 (M) (converted)
[4] = Zika virus, Vero, read-out: Log AC50 (converted)

SMILES	CC-v2 (curve class classification v2 of the dose response curve) [1]	Efficacy (difference between neutral response and maximum compound response) [1]	Max Resp (difference between neutral response and compound response for highest compound concentration) [1]	also measured
CCNC(=O)c1cc2c(-c3cc(OCCN4CCCC4)c(Cl)cc3Cl)nc(N)nc2s1 [NCGC00247879-01]	–	–	–	Curve class [1]: 4; Efficacy [1]: -14.131; Emax ([1]; Zika virus, Vero, read-out: Max response): 2.04%; Efficacy (difference between neutral response and maximum compound response) (Vero cells): -14.131; Max Resp (difference between neutral response and compound response for highest compound concentration) (Vero cells): 2.045
CC[C@@]1([C@@H]2O[C@@H]([C@H]3O[C@@](O)(CO)[C@H](C)C[C@@H]3C)C[C@@H]2C)CC[C@H]([C@]2(C)CC[C@]3(C[C@H](O)[C@@H](C)[C@@H]([C@@H](C)[C@@H](OC)[C@H](C)C(=O)O)O3)O2)O1 [NCGC00179454-04]	4	29.905	-20.473	–
COC(=O)[C@]12CCC(C)(C)C[C@H]1[C@H]1C(=O)C=C3[C@@]4(C)C=C(C#N)C(=O)C(C)(C)[C@@H]4CC[C@@]3(C)[C@]1(C)CC2 [NCGC00186460-02]	-1.1	-99.409	-99.593	AC50 ([1]; Zika virus, Vero): 3.69e-07 M; AC50 [1, 3]: 3.69e-07 M; AC50 (Vero cells): 0.369 µM; Log AC50 (M) (Vero cells): -6.4327 M
CC1OC(OC2C(O)COC(O[C@@H]3[C@@H](O)[C@@H](O)[C@H](OC4C(OC(=O)[C@]56CCC(C)(C)CC5C5=CCC7[C@@]8(C)C[C@H](O)[C@H](OC9OC(CO)C(O)C(O)C9O)[C@@](C)(CO)C8[C@H](O)C[C@@]7(C)[C@]5(C)CC6)OCC(O)C4O)O[C@H]3C)C2O)C(O)C(O)C1O (some centres unmarked) [NCGC00385323-01]	-3	–	-39.964	–
CCc1ccc(C(=O)Nc2cc(CN3CCN(C)CC3)cc(C(F)(F)F)c2)cc1C#Cc1cnc2ccnn2c1 [NCGC00347217-02]	-3	-116.826	-100.407	–
CC(C)(N)C(=O)N[C@H](COCc1ccccc1)C(=O)N1CCC2(CC1)CN([S+](C)(=O)[O-])c1ccccc12 [NCGC00263115-01]	4	-25.4	-0.591	–
CN(C)c1cccc(-c2c3c(=O)n(-c4ccccc4Cl)[nH]c3cc(=O)n2C)c1 [NCGC00378460-01]	4	10.267	14.909	–
COc1cc2nc(N3CCN(C(=O)c4ccco4)CC3)nc(N)c2cc1OC [NCGC00016740-18]	–	–	-5.44	–
Cc1cccc(C)c1OCC(=O)N[C@@H](Cc1ccccc1)[C@@H](O)C[C@H](Cc1ccccc1)NC(=O)[C@H](C(C)C)N1CCCNC1=O [NCGC00164576-04]	4	–	-20.627	–
CC1(C)C=Cc2c(ccc(C(=O)/C=C/c3ccccc3)c2O)O1 [NCGC00187466-03]	4	–	-35.49	–
CC(C)COCC(CN(Cc1ccccc1)c1ccccc1)N1CCCC1 (centres unmarked) [NCGC00015155-11]	-2.2	-53.208	-86.237	–
CC1OC(OC2C(c3c(O)cc(OC4OC(CO)C(O)C(O)C4O)c4c(=O)cc(-c5ccc(O)cc5)oc34)OC(CO)C(O)C2O)C(O)C(O)C1O (centres unmarked) [NCGC00384535-01]	4	–	-6.059	–
CCCCCCCCCCC[C@@H](C[C@@H]1OC(=O)[C@H]1CCCCCC)OC(=O)C(CC(C)C)NC=O (some centres unmarked) [NCGC00165856-03]	-3	0	-33.733	–
COc1c(O)c(C(=O)/C=C/c2ccccc2)c(OC)c(OC)c1OC [NCGC00384644-01]	4	–	-2.089	–
CCC(C)C(O)C(=O)OC1CC2C(C)(C)C(OC(C)=O)CC(OC(C)=O)C2(C)C2CC(OC(C)=O)C3(C)C(=CCC3c3ccoc3)C12C (centres unmarked) [NCGC00385571-01]	-3	0	-47.611	–
CC[C@@H]1C(=O)N(C)c2cnc(Nc3ccc(C(=O)NC4CCC(N5CCN(CC6CC6)CC5)CC4)cc3OC)nc2N1C(C)C (some centres unmarked) [NCGC00263087-01]	4	12.227	10.387	–
CCOc1cc(N)c(Cl)cc1C(=O)NCC1CN(Cc2ccc(F)cc2)CCO1 (centres unmarked) [NCGC00160527-05]	4	-16.441	-14.706	–

SMILES	CC-v2 (curve class classification v2 of the dose response curve) [1]	Efficacy (difference between neutral response and maximum compound response) [1]	Max Resp (difference between neutral response and compound response for highest compound concentration) [1]	also measured
CN1CCN(CCCN2c3ccccc3Sc3ccc(S(=O)(=O)N(C)C)cc32)CC1.CS(=O)(=O)O.CS(=O)(=O)O [NCGC00017040-01]	4	-28.971	-22.476	–
CC(=O)O[C@H]1C[C@@H]2[C@]3(CC[C@]4(C)[C@@H](C5(C)CCC(C(C)(C)O)O5)[C@@H](O)C[C@@]24C)C[C@@]32CC[C@H](O[C@@H]3OC[C@@H](O)[C@H](O)[C@H]3O)C(C)(C)[C@H]12 (some centres unmarked) [NCGC00385494-01]	4	27.089	-22.612	–
CCC(C)C1NC(=O)C2CCCN2C(=O)C(CC(C)C(=O)O)OC(=O)CCNC(=O)C(C)N(C)C(=O)C(C(C)C)N(C)C1=O (centres unmarked) [NCGC00380598-01] (cyclo([X3]PI[NMeV][NMeA][βAla]); configuration not given here)	4	-20.973	-24.561	–
COc1ccc(/C=C/C(=O)/C=C/c2ccc(OC)cc2)cc1 [NCGC00336197-02]	3	41.267	6.905	–
CCCCc1ccc(N[S+](=O)([O-])c2ccc(C)c(C(=O)N3CCN(c4cccc(C)c4C)CC3)c2)cc1 [NCGC00263234-01]	-3	-38.307	-30.256	AC50 ([1]; Zika virus, Vero): 7.59e-05 M; AC50 [1, 3]: 7.59e-05 M
CC1=CC(=O)C(=C(C)C)CC2C(C)(O)CCC12O (centres unmarked) [NCGC00385849-01]	-1.2	-35.641	-12.132	–
CCN(CC)Cc1cc(Nc2ccnc3cc(Cl)ccc23)ccc1O [NCGC00017063-03]	4	28.757	20.219	–
COc1cc2c(cc1O)C(c1ccc(O)cc1)C(C)C(C)C2 (centres unmarked) [NCGC00380925-01]	–	–	–	CC-v2 (curve class classification of the dose response curve) [2]: -3; Efficacy [2]: -32.851; AC50 ([2]; Zika virus, Vero): 6.51e-05 M; AC50 [2, 3]: 6.51e-05 M
O=C1Nc2ccc(Cl)cc2[C@@](C#CC2CC2)(C(F)(F)F)O1 [NCGC00159337, efavirenz, reference compound]	–	–	–	Identified as active in CPE assay validation set [2]: identified
C=C(C(=O)O[C@H]1C/C(C)=C/CC/C(CO)=C/[C@H]2OC(=O)C(=C)[C@H]12)C(O)CO (some centres unmarked) [NCGC00385206-01]	–	–	–	CC-v2 (curve class classification of the dose response curve) [2]: -3; Efficacy [2]: -104.223; AC50 ([2]; Zika virus, Vero): 4.53e-05 M; AC50 [2, 3]: 4.53e-05 M
C=Cc1cc2oc(-c3ccc(O)c(F)c3)nc2cc1O [NCGC00485115-01]	–	–	–	Efficacy [2]: -24.649; AC50 ([2]; Zika virus, Vero): 6.51e-05 M; AC50 [2, 3]: 6.51e-05 M
CC(=O)OC[C@]12C[C@H](OC(=O)CC(C)C)C(C)=C[C@H]1O[C@@H]1[C@H](O)C[C@@]2(C)[C@]12CO2 [NCGC00385002-01]	–	–	–	Efficacy [2]: -46.392; Log AC50 (M) [2]: -5.6492 M; Max Resp [2]: -19.758; AC50 ([2]; read-out: AC50): 2.24e-06 M
C=C1C(=O)O[C@@H]2C[C@H](C)[C@@H]3CC(=O)C(C)=C3C[C@H]12 [NCGC00169080-02]	–	–	–	Curve class [2]: -3; Efficacy [2]: -111.978; AC50 ([2]; Zika virus, Vero): 6.51e-05 M; AC50 [2, 4]: 6.51e-05 M; Emax ([2]; Zika virus, Vero): -89.7%
CC1(C)CC=C(C#Cc2ccccc2)c2cc(/C=C/c3ccc(C(=O)O)cc3)ccc21 [NCGC00387103-01]	–	–	–	CC-v2 (curve class classification of the dose response curve) [2]: -2.2; Efficacy [2]: -97.274; AC50 ([2]; Zika virus, Vero): 5.17e-05 M; AC50 [2, 3]: 5.17e-05 M
Cc1nc[nH]c1C1CCN(c2nc3cccc4c3n2CCC4=O)CC1 [NCGC00370838-01]	–	–	–	CC-v2 (curve class classification of the dose response curve) [2]: -3; Efficacy [2]: -41.62; AC50 ([2]; Zika virus, Vero): 1.84e-05 M; AC50 [2, 3]: 1.84e-05 M
CN1CCC(=C2c3ccccc3CCc3sccc32)CC1 [NCGC00163169-02]	4	14.14	-9.44	–
CCOC(=O)C1=C(N)Oc2ccc(Br)cc2C1C(C#N)C(=O)OCC (centres unmarked) [NCGC00025207-16]	–	–	–	AC50 [2]: 3.26e-05 M; Curve class [2]: -3; Efficacy [2]: -33.191; AC50 [2, 4]: 3.26e-05 M; Emax ([2]; Zika virus, Vero): -2.2%
